Reference: PubChem BioAssay (NCI)
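Each compound was tested at five concentrations against cells in 96-well plates for 48 hours. GI50 is the concentration that inhibits growth by half. TGI denotes the concentration required for complete inhibition of growth.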

Tests used:
Assay in all cases: NCI-60 cell line screen, 48 h
[1] = tested on: 786-0 renal
[2] = tested on: A498 renal
[3] = tested on: A549 NSCLC
[4] = tested on: ACHN renal
[5] = tested on: BT-549 breast
[6] = tested on: CAKI-1 renal
[7] = tested on: COLO 205 colon
[8] = tested on: DU-145 prostate
[9] = tested on: EKVX NSCLC
[10] = tested on: HCT-116 colon
[11] = tested on: HCT-15 colon
[12] = tested on: HL-60(TB) leukemia
[13] = tested on: HOP-62 NSCLC
[14] = tested on: HOP-92 NSCLC
[15] = tested on: HS 578T breast
[16] = tested on: HT29 colon
[17] = tested on: IGROV1 ovarian
[18] = tested on: K-562 leukemia
[19] = tested on: KM12 colon
[20] = tested on: LOX IMVI melanoma
[21] = tested on: M14 melanoma
[22] = tested on: MCF7 breast
[23] = tested on: MDA-MB-231 breast
[24] = tested on: MDA-MB-435
[25] = tested on: MOLT-4 leukemia
[26] = tested on: NCI-H226 lung
[27] = tested on: NCI-H23 lung
[28] = tested on: NCI-H460 lung
[29] = tested on: NCI-H522 lung
[30] = tested on: NCI/ADR-RES ovarian
[31] = tested on: OVCAR-3 ovarian
[32] = tested on: OVCAR-4 ovarian
[33] = tested on: OVCAR-5 ovarian
[34] = tested on: OVCAR-8 ovarian
[35] = tested on: PC-3 prostate
[36] = tested on: RPMI-8226 leukemia
[37] = tested on: RXF 393 renal
[38] = tested on: SF-268 CNS
[39] = tested on: SF-295 CNS
[40] = tested on: SF-539 CNS
[41] = tested on: SK-MEL-2 melanoma
[42] = tested on: SK-MEL-28 melanoma
[43] = tested on: SK-MEL-5 melanoma
[44] = tested on: SK-OV-3 ovarian
[45] = tested on: SN12C renal
[46] = tested on: SNB-19 CNS
[47] = tested on: SNB-75 CNS
[48] = tested on: SR leukemia
[49] = tested on: SW-620 colon
[50] = tested on: TK-10 renal
[51] = tested on: U251 CNS
[52] = tested on: UACC-257 melanoma
[53] = tested on: UACC-62 melanoma
[54] = tested on: UO-31 renal
[55] = tested on: CCRF-CEM leukemia
[56] = tested on: HCC-2998 colon
[57] = tested on: MALME-3M melanoma

## CCCN1C(=O)/C(=C/c2ccc(O)cc2)SC1=Nc1ccc(OC)cc1
[1]
  GI50: 16 µM
  TGI: 34.6 µM
[2]
  GI50: 9.61 µM
  TGI: 22.7 µM
[3]
  GI50: 12.5 µM
  TGI: 26.1 µM
[4]
  GI50: 12.7 µM
  TGI: 25.3 µM
[5]
  GI50: 15.3 µM
  TGI: 34.9 µM
[6]
  GI50: 12.9 µM
  TGI: 27.8 µM
[7]
  GI50: 36.6 µM
  TGI: > 100 µM
[8]
  GI50: 10.3 µM
  TGI: 29.5 µM
[9]
  GI50: 12.3 µM
  TGI: 27.9 µM
[10]
  GI50: 14.2 µM
  TGI: 29.3 µM
[11]
  GI50: 12.6 µM
  TGI: 25.7 µM
[12]
  GI50: 17.1 µM
  TGI: 50.2 µM
[13]
  GI50: 28 µM
  TGI: 80 µM
[14]
  GI50: 6.91 µM
  TGI: 23.2 µM
[15]
  GI50: 4.48 µM
  TGI: 23.3 µM
[16]
  GI50: 22.1 µM
  TGI: 48.4 µM
[17]
  GI50: 30 µM
  TGI: > 100 µM
[18]
  GI50: 12.5 µM
  TGI: > 100 µM
[19]
  GI50: 10.6 µM
  TGI: 28.7 µM
[20]
  GI50: 15.4 µM
  TGI: 30.8 µM
[21]
  GI50: 26.8 µM
  TGI: 60.6 µM
[22]
  GI50: 23.2 µM
  TGI: 94.2 µM
[23]
  GI50: 14.1 µM
  TGI: 31 µM
[24]
  GI50: 14.9 µM
  TGI: 31.2 µM
[25]
  GI50: 10.7 µM
  TGI: > 100 µM
[26]
  GI50: 32 µM
  TGI: 95.5 µM
[27]
  GI50: 16.2 µM
  TGI: 32.4 µM
[28]
  GI50: 17.6 µM
  TGI: 66.7 µM
[29]
  GI50: 39.9 µM
  TGI: > 100 µM
[30]
  GI50: 14 µM
  TGI: 29.5 µM
[31]
  GI50: 17.3 µM
  TGI: 42.8 µM
[32]
  GI50: 13.4 µM
  TGI: 35.2 µM
[33]
  GI50: 15.9 µM
  TGI: 29.6 µM
[34]
  GI50: 18.2 µM
  TGI: 37.1 µM
[35]
  GI50: 14 µM
  TGI: 31.7 µM
[36]
  GI50: 12.4 µM
  TGI: 42 µM
[37]
  GI50: 11.7 µM
  TGI: 28.3 µM
[38]
  GI50: 17.3 µM
  TGI: 74.9 µM
[39]
  GI50: 14.7 µM
  TGI: 34.9 µM
[40]
  GI50: 16.2 µM
  TGI: 33.1 µM
[41]
  GI50: 37.1 µM
  TGI: > 100 µM
[42]
  GI50: 19.4 µM
  TGI: 41 µM
[43]
  GI50: 11 µM
  TGI: 26 µM
[44]
  GI50: 18.1 µM
  TGI: 41.9 µM
[45]
  GI50: 16.8 µM
  TGI: 34.5 µM
[46]
  GI50: 19.6 µM
  TGI: 45.5 µM
[47]
  GI50: 17.8 µM
  TGI: 46.1 µM
[48]
  GI50: 10.4 µM
  TGI: > 100 µM
[49]
  GI50: 18 µM
  TGI: 48.3 µM
[50]
  GI50: 18.4 µM
  TGI: 39 µM
[51]
  GI50: 12.5 µM
  TGI: 26 µM
[52]
  GI50: 17.3 µM
  TGI: 31.7 µM
[53]
  GI50: 17.6 µM
  TGI: 33.7 µM
[54]
  GI50: 25.7 µM
  TGI: > 100 µM

## CN(C)CCCNC(=O)c1cc(NC(=O)c2cc(NC(=O)[C@@H]3C[C@H]3C(=O)Nc3cc(C(=O)Nc4cc(C(=O)NCCCN(C)C)n(C)c4)n(C)c3)cn2C)cn1C
[1]
  TGI: > 100 µM
[3]
  TGI: > 100 µM
[4]
  TGI: > 100 µM
[5]
  TGI: > 100 µM
[6]
  TGI: > 100 µM
[55]
  TGI: > 100 µM
[7]
  TGI: > 100 µM
[8]
  TGI: > 100 µM
[9]
  TGI: > 100 µM
[56]
  TGI: > 100 µM
[10]
  TGI: > 100 µM
[12]
  TGI: > 100 µM
[13]
  TGI: > 100 µM
[14]
  TGI: > 100 µM
[16]
  TGI: > 100 µM
[17]
  TGI: > 100 µM
[18]
  TGI: > 100 µM
[19]
  TGI: > 100 µM
[20]
  TGI: > 100 µM
[21]
  TGI: > 100 µM
[57]
  TGI: > 100 µM
[22]
  TGI: > 100 µM
[23]
  TGI: > 100 µM
[24]
  TGI: > 100 µM
[25]
  TGI: > 100 µM
[26]
  TGI: > 100 µM
[27]
  TGI: > 100 µM
[28]
  TGI: > 100 µM
[29]
  TGI: > 100 µM
[30]
  TGI: > 100 µM
[32]
  TGI: > 100 µM
[33]
  TGI: > 100 µM
[34]
  TGI: > 100 µM
[35]
  TGI: > 100 µM
[36]
  TGI: > 100 µM
[38]
  TGI: > 100 µM
[39]
  TGI: > 100 µM
[40]
  TGI: > 100 µM
[41]
  TGI: > 100 µM
[42]
  TGI: > 100 µM
[43]
  TGI: > 100 µM
[45]
  TGI: > 100 µM
[46]
  TGI: > 100 µM
[47]
  TGI: > 100 µM
[48]
  TGI: > 100 µM
[49]
  TGI: > 100 µM
[51]
  TGI: > 100 µM
[52]
  TGI: > 100 µM
